The test system of this assay is Mycobacterium tuberculosis. The experiment in a line: Antituberculosis activity against Mycobacterium tuberculosis H37Rv ATCC 27294 by modified BACTEC 460 method. Format: functional, organism-based. Conditions: for IC90 / IC50: Mycobacterium tuberculosis, H37Rv ATCC 27294.

Structures are written as SMILES. A value given as a limit tells only on which side of the number the result lay.

As usually defined, the IC90 is the concentration needed for an effect of 90%. Read a low IC90 as greater potency.

Turning to `Cc1ccc(C(=O)/C=C/c2cn(-c3ccccc3)nc2-c2ccc(F)cc2)cc1`, the pIC90 worked out at 5.1 and the 90% effect level (IC90) was put at 7.96 µM. For the same molecule, the IC50 (read-out: IC50) stood at 7.18 µM. Moreover, the IC50 (read-out: pIC50 (converted)) is 7.24 µM.

The molecule `Oc1ccccc1C1=NN[C@@H](c2cn(-c3ccccc3)nc2-c2ccc(F)cc2)C1` registered a pIC90 of 4.5 and a 90% effect concentration (IC90) of 31.7 µM. The IC50 (read-out: IC50) was found to be 28.1 µM. Besides, the IC50 (read-out: pIC50 (converted)) is 28.2 µM.

`Fc1ccc(-c2nn(-c3ccccc3)cc2[C@H]2CC(c3ccc(Cl)cc3)=NN2)cc1`: the pIC90 worked out at 4.16 and the 90% effect level (IC90) was put at 68.7 µM. Besides, the IC50 (read-out: IC50) came to 43.3 µM. The IC50 (read-out: pIC50 (converted)) was 43.7 µM.

Regarding `Nc1ccc(C2=NN[C@@H](c3cn(-c4ccccc4)nc3-c3ccc(F)cc3)C2)cc1`, the pIC90 stood at 3.9 and the IC90 was determined as 127 µM. Further, the IC50 (read-out: IC50) is 74.4 µM. Moreover, the IC50 (read-out: pIC50 (converted)) was 74.1 µM.

For the molecule `O=C(/C=C/c1cn(-c2ccccc2)nc1-c1ccc(F)cc1)c1ccc(O)cc1`, the pIC90 stood at 5.07 and the concentration for an effect of 90% (IC90) is 8.47 µM. Also, under “read-out: IC50”, the IC50 is 7.46 µM. For the same molecule, under “read-out: pIC50 (converted)”, the IC50 was 7.41 µM.

Take `O=C(c1ccccc1)N1N=C(c2cccs2)C[C@@H]1c1cn(-c2ccccc2)nc1-c1ccc(F)cc1`: the pIC90 is listed as 4.05 and the IC90 is 88.7 µM. The IC50 (read-out: IC50) worked out at 46.9 µM. Moreover, the IC50 (read-out: pIC50 (converted)) was 46.8 µM.

For the molecule `Nc1ccc(C2=NN(N=O)[C@@H](c3cn(-c4ccccc4)nc3-c3ccc(F)cc3)C2)cc1`, the pIC90 was 4.42 and the IC90 was 37.8 µM. Further, the IC50 (read-out: IC50) worked out at 20.9 µM. In addition, the IC50 (read-out: pIC50 (converted)) was 20.9 µM.

The molecule `O=[N+]([O-])c1cccc(-c2cc(-c3cn(-c4ccccc4)nc3-c3ccc(F)cc3)[nH]c(=S)n2)c1` came in with a pIC90 of 4.37 and a 90% effect concentration (IC90) of 43 µM. Besides, the IC50 (read-out: IC50) worked out at 27.9 µM. Further, the IC50 (read-out: pIC50 (converted)) was 28.2 µM.

Turning to `Nc1nc(-c2cccc([N+](=O)[O-])c2)cc(-c2cn(-c3ccccc3)nc2-c2ccc(F)cc2)n1`, the pIC90 is reported as under 3.66 and the 90% effect concentration (IC90) was over 220 µM. Further, the IC50 (read-out: IC50) was 52.9 µM. In addition, the IC50 (read-out: pIC50 (converted)) is 52.5 µM.

Turning to `O=C(/C=C/c1cn(-c2ccccc2)nc1-c1ccc(F)cc1)c1ccc(Br)cc1`, the pIC90 turned out to be 4.74 and the IC90 is 18.1 µM. Moreover, where the note is “read-out: IC50”, the IC50 is 9.77 µM. Also, under “read-out: pIC50 (converted)”, the IC50 was 9.77 µM.

(Values after ChEMBL document CHEMBL1932922, “Synthesis, antitubercular evaluation and 3D-QSAR study of N-phenyl-3-(4-fluorophenyl)-4-substituted pyrazole derivatives” (Bioorg Med Chem Lett, 2012).)
